How the values were obtained:
5HT2A sensor = format: cell-based
5-HT2A [1] = target: T1, 5-HT2A (Homo sapiens, UniProt P28223); assay: Serotonin 5-HT2A in vitro radioligand binding competition assay ([3H]-DOI); set-up: purchased Epics Therapeutics S.A. (Belgium) FAST-0505B; host or cells: membrane extracts; settings: [3H]-DOI competition, membrane extracts
Experimental: Serotonin 5-HT2A In Vitro Radioligand Binding Competition Assay. The 5-HT2A radioligand binding competition assay was performed at Epics Therapeutics S.A. (Belgium, FAST-0505B) using conventional methods. Briefly, competition binding was performed in duplicate in the wells of a 96 well plate (Master Block, Greiner, 786201) containing binding buffer (optimized for each receptor), membrane extracts (amount of protein/well optimized for each receptor), radiotracer [^3H]-DOI (final concentration optimized for each receptor) and test compound. Nonspecific binding was determined by co-incubation with 200-fold excess of cold competitor. The samples were incubated in a final volume of 0.1 ml at a temperature and for a duration optimized for each receptor and then filtered over filter plates. Filters were washed six times with 0.5 ml of ice-cold washing buffer (optimized for each receptor) and 50 μl of Microscint 20 (Packard) was added in each well. The plates were incubated 15 min on an orbital shaker and then counted with a TopCount™ for 1 min/well.

rat cortical neurons = assay: Neurite outgrowth assay; format: cell-based; set-up: key: A: Statistically significant mean increase as a percent of DMSO control at 10 μM or less.; B: No statistically significant mean increase as a percent of DMSO control at 10 μM or less; settings: 72 h, 10 μM or less, vs DMSO control
Text: Neurite Outgrowth Assay. Changes in the pattern of neurite outgrowth have been implicated in psychiatric and neurodegenerative disorders as well as traumatic injuries. The discovery of new compounds that can positively affect neuritogenesis are important for developing new therapeutics for neurological diseases. Measurement of neurite outgrowth of rat cortical neurons using an automated image-based assay was used to determine the neuroplastic effects of the compounds of the present invention. The neurite outgrowth assay was performed at Neurofit SAS (France) as described below.
Pregnant Wistar rats (Janvier; France) were used for the study. They were delivered 6 days before their use. Upon arrival at Neurofit animal facility, they were housed one per cage and maintained in a room with controlled temperature (21-22° C.) and a reversed light-dark cycle (12 h/12 h; lights on: 17:30-05:30; lights off: 05:30-17:30) with food and water available ad libitum.
Female Wistar rats of 17 days gestation were killed by cervical dislocation and the fetuses were removed from the uterus. Their brains were placed in ice-cold medium of Leibovitz (L15, Gibco, Fisher bioblock, France). Cortices were dissected and meninges were carefully removed. The cortical neurons were dissociated by trypsinization for 30 min at 37° C. (trypsin-EDTA, Gibco) in presence of 0.1 mg/ml DNAse I (Roche, France). The reaction was stopped by addition of Dulbecco's Modified Eagle Medium (DMEM; Gibco) with 10% of fetal bovine serum (FBS; Gibco). The suspension was triturated with a 10-ml pipette and using a needle syringe 21G and centrifuged at 350×g for 10 min at room temperature. The pellet of dissociated cells was resuspended in a medium consisting of Neurobasal (Gibco) supplemented with 2% B27 supplement (Gibco), 0.5 mM L-Glutamine (Gibco), an antibiotic-antimicotic mixture. Viable cells were counted in a Neubauer cytometer using the trypan blue exclusion test (Sigma). Cells were seeded at a density of 10000 cells per well in 96-well plate (Costar) precoated with poly-L-lysine. Test compound at different concentrations were added to the cultures. Donepezil (positive control) was tested at 250 nM.
After 72 h (3 days) of plating, cultures were fixed with paraformaldehyde in PBS (4%, Sigma) for 30 min at 4° C. Then, cells were successively permeabilized with 0.1% Triton X100 for 30 min, saturated with PBS containing 3% of BSA and were incubated 1 h with anti-beta III tubulin antibody (Sigma) at 1/10 000 in PBS containing 0.5% of BSA. Cells were washed three times with PBS containing 0.5% of BSA, and they were incubated 1 h with goat anti-mouse antibody coupled with AF488 (Invitrogen A 11001) diluted at 1/1000 in PBS containing 0.5% of BSA. Finally, nuclei were staining with DAPI 1 mg/ml at 1/1000 in PBS containing 0.5% of BSA. After rinsing with PBS, the plate was filmed and neurite networks were examined and analyzed using High-Content Screening (CellInsight, Thermo Scientific). The average number of neurites per neuron and the average total length of neurites per neuron were the main parameters analyzed. Analysis of data was performed using analysis of variance (ANOVA). The Fisher's Protected Least Significant Difference test was used for multiple comparisons. A p value≤0.05 was considered significant. The software used is StatView 5.0 from SAS Institut.

5-HT2A [2] = target: T1, 5-HT2A; assay: Serotonin 5-HT2A in vitro cellular IPOne agonism assay (HTRF); format: cell-based; set-up: host or cells: CHO-K1; settings: CHO-K1 cells, agonist mode
Experimental: (§1) Serotonin 5-HT2A In Vitro Cellular IPOne Agonism Assay. The 5-HT2A IPOne HTRF assay was performed at Epics Therapeutics S.A. (Belgium, FAST-0505I) using conventional methods. Briefly, CHO-K1 cells expressing human recombinant 5-HT2A receptor grown to mid-log phase in culture media without antibiotics were detached with PBS-EDTA, centrifuged, and resuspended in medium without antibiotics buffer. 20,000 cells were distributed in a 96 well plate and incubated overnight at 37° C. with 5% CO2.
For agonist testing, the medium was removed and 20 μl of assay buffer plus 20 μl of test compound or reference agonist are added in each well. The plate was incubated for 60 min. at 37° C. with 5% CO2.
(§2) After addition of the lysis buffer containing IP1-d2 and anti-IP1 cryptate detection reagents, plates were incubated 1-hour at room temperature, and fluorescence ratios were measured according to the manufacturer specification, with the HTRF kit.

5-HT2A [3] = target: T1, 5-HT2A; assay: Serotonin 5-HT2A in vitro cellular IPOne antagonism assay; format: cell-based; set-up: host or cells: CHO-K1; settings: CHO-K1 cells, antagonist mode, reference agonist a-Me-5HT
Experimental: as §1, with “Serotonin 5-HT2A and 5-HT2C In Vitro” for “Serotonin 5-HT2A In Vitro”, “Cellular IPOne Antagonism Assay. The” for “Cellular IPOne Agonism Assay. The”, “(Belgium, FAST-0505I) in antagonism mode using conventional” for “(Belgium, FAST-0505I) using conventional”
For antagonist testing, a reference agonist a-Me-5HT was added and fluorescence signal monitored for several minutes, followed by addition of 20 μl of assay buffer plus 20 μl of test compound or reference antagonist ketanserin, in each well. The plate was incubated for 60 min. at 37° C. with 5% CO2.
as §2

mice = assay: Head-twitch response (HTR); format: in vivo
Experimental: Head twitch response (HTR) experiments. C57BL/6J Mice (9-10 weeks old) are housed following an IACUC approved protocol. The mice are habituated in the test cage for at least 30 min, injected intraperitoneally with compound (injection volume 5 ml/kg), returned to the empty test cage, and filmed for 20 minutes. Each video is scored for the number of head-twitches by a trained observer blinded to treatment condition.

T1 sequence (P28223 whole entry): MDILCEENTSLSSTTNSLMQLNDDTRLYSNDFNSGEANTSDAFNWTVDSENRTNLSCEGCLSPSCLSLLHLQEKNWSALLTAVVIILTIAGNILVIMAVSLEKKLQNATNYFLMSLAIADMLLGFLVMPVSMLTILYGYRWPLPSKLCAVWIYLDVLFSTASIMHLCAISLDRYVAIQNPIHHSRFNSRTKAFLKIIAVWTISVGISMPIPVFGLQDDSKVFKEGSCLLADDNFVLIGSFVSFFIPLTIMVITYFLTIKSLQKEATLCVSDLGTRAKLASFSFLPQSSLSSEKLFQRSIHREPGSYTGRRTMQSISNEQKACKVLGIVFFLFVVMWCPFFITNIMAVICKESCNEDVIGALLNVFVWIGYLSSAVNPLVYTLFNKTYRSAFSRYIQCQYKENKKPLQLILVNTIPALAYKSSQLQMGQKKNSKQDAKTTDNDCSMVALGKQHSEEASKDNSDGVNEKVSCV

CNC(C)Cc1ccc2c(c1)OCO2 [L-MDMA]
activation of the 5HT2A sensor assay in agonist mode (5HT2A sensor): do not activate

Cn1c2c(c3ccc(OCc4ccc(F)cc4)cc31)CCNCC2 [Compound 9, 8-((4-fluorobenzyl)oxy)-6-methyl-1,2,3,4,5,6-hexahydroazepino[4,5-b]indole]
IC50 (5-HT2A [1]): 101 to 1000 nM
Increase in Neurite Branching (rat cortical neurons): B
Increase in Neurite Length (rat cortical neurons): B
Increase in Neurite Number (rat cortical neurons): B
EC50 (5-HT2A [2]): > 10000 nM
IC50 (5-HT2A [3]): 101 to 1000 nM

COc1cc(CC(C)N)c(OC)cc1I (stereo not shown) [DOI]
activation of the 5HT2A sensor assay in agonist mode (5HT2A sensor): activate

CCN(CC)CCc1c[nH]c2cc(F)ccc12 [Compound 6-F-DET, 6-F-DET]
activation of the 5HT2A sensor assay in agonist mode (5HT2A sensor): do not activate

O=C(c1ccc(F)cc1)C1CCN(CCn2c(=O)[nH]c3ccccc3c2=O)CC1 [Ketanserin]
activation of the 5HT2A sensor assay in agonist mode (5HT2A sensor): do not activate

Cn1c2c(c3ccc(OCc4ccccc4)cc31)CCNCC2 [Compound 5, 8-(benzyloxy)-6-methyl-1,2,3,4,5,6-hexahydroazepino[4,5-b]indole]
IC50 (5-HT2A [1]): 101 to 1000 nM
Increase in Neurite Branching (rat cortical neurons): B
Increase in Neurite Length (rat cortical neurons): B
Increase in Neurite Number (rat cortical neurons): B
EC50 (5-HT2A [2]): > 10000 nM
IC50 (5-HT2A [3]): 101 to 1000 nM

CN1CCc2[nH]c3cccc(Oc4ccc(F)cc4)c3c2CC1 [Compound 22, 10-(4-fluorophenoxy)-3-methyl-1,2,3,4,5,6-hexahydroazepino[4,5-b]indole]
IC50 (5-HT2A [1]): 10 to 100 nM
Increase in Neurite Branching (rat cortical neurons): A
Increase in Neurite Length (rat cortical neurons): A
Increase in Neurite Number (rat cortical neurons): A
EC50 (5-HT2A [2]): > 10000 nM
IC50 (5-HT2A [3]): 10 to 100 nM

CN1CCc2[nH]c3cccc(OCc4ccccc4)c3c2CC1 [Compound 2, 10-(benzyloxy)-3-methyl-1,2,3,4,5,6-hexahydroazepino[4,5-b]indole]
IC50 (5-HT2A [1]): < 10 nM
Increase in Neurite Branching (rat cortical neurons): B
Increase in Neurite Length (rat cortical neurons): A
Increase in Neurite Number (rat cortical neurons): A
EC50 (5-HT2A [2]): > 10000 nM
IC50 (5-HT2A [3]): 10 to 100 nM

CCN(CC)C(=O)[C@@H]1C=C2c3cccc4[nH]cc(c34)C[C@H]2N(C)C1 [LSD]
activation of the 5HT2A sensor assay in agonist mode (5HT2A sensor): activate

c1ccc(COc2ccc3[nH]c4c(c3c2)CCNCC4)cc1 [Compound 25, 9-(benzyloxy)-1,2,3,4,5,6-hexahydroazepino[4,5-b]indole]
IC50 (5-HT2A [1]): 101 to 1000 nM
Increase in Neurite Length (rat cortical neurons): A
EC50 (5-HT2A [2]): > 10000 nM
IC50 (5-HT2A [3]): 101 to 1000 nM

CN1CCc2[nH]c3c(OCc4ccccc4)cccc3c2CC1 [Compound 28, 7-(benzyloxy)-3-methyl-1,2,3,4,5,6-hexahydroazepino[4,5-b]indole]
IC50 (5-HT2A [1]): 10 to 100 nM
Increase in Neurite Branching (rat cortical neurons): A
Increase in Neurite Length (rat cortical neurons): A
Increase in Neurite Number (rat cortical neurons): A
EC50 (5-HT2A [2]): > 10000 nM
IC50 (5-HT2A [3]): 10 to 100 nM

CN1CCc2c(n(C)c3cc(OCc4ccc(F)cc4)ccc23)CC1 [Compound 10, 8-((4-fluorobenzyl)oxy)-3,6-dimethyl-1,2,3,4,5,6-hexahydroazepino[4,5-b]indole]
IC50 (5-HT2A [1]): 101 to 1000 nM
Increase in Neurite Length (rat cortical neurons): B
EC50 (5-HT2A [2]): > 10000 nM
IC50 (5-HT2A [3]): 10 to 100 nM

COc1ccc2[nH]cc(CCN(C)C)c2c1 [Compound 5-MeO-DMT, 5-MeO-DMT]
activation of the 5HT2A sensor assay in agonist mode (5HT2A sensor): activate
head-twitch response (HTR) (mice): robust, dose-dependent head-twitch response

CN1CCc2c(n(C)c3cc(OCc4ccccc4)ccc23)CC1 [Compound 6, 8-(benzyloxy)-3,6-dimethyl-1,2,3,4,5,6-hexahydroazepino[4,5-b]indole]
IC50 (5-HT2A [1]): 101 to 1000 nM
Increase in Neurite Branching (rat cortical neurons): B
Increase in Neurite Length (rat cortical neurons): B
Increase in Neurite Number (rat cortical neurons): B
EC50 (5-HT2A [2]): > 10000 nM
IC50 (5-HT2A [3]): 101 to 1000 nM

CN1CCc2[nH]c3cc(Oc4ccc(F)cc4)ccc3c2CC1 [Compound 16, 8-(4-fluorophenoxy)-3-methyl-1,2,3,4,5,6-hexahydroazepino[4,5-b]indole]
IC50 (5-HT2A [1]): 101 to 1000 nM
Increase in Neurite Branching (rat cortical neurons): A
Increase in Neurite Length (rat cortical neurons): A
Increase in Neurite Number (rat cortical neurons): B
EC50 (5-HT2A [2]): > 10000 nM
IC50 (5-HT2A [3]): 101 to 1000 nM

COc1ccc2c(CCN(C)C)c[nH]c2c1 [Compound 6-MeO-DMT, 6-MeO-DMT]
activation of the 5HT2A sensor assay in agonist mode (5HT2A sensor): do not activate
head-twitch response (HTR) (mice): does not produce a HTR

CN(C)CCc1c[nH]c2ccccc12 [DMT, N,N-dimethyltryptamine]
activation of the 5HT2A sensor assay in agonist mode (5HT2A sensor): activate

CN1CCc2c(n(C)c3cccc(Oc4ccc(F)cc4)c23)CC1 [Compound 24, 10-(4-fluorophenoxy)-3,6-dimethyl-1,2,3,4,5,6-hexahydroazepino[4,5-b]indole]
IC50 (5-HT2A [1]): 10 to 100 nM
Increase in Neurite Branching (rat cortical neurons): B
Increase in Neurite Length (rat cortical neurons): A
Increase in Neurite Number (rat cortical neurons): B
EC50 (5-HT2A [2]): > 10000 nM
IC50 (5-HT2A [3]): 10 to 100 nM

CN1CCc2c(n(C)c3cc(Oc4ccc(F)cc4)ccc23)CC1 [Compound 18, 8-(4-fluorophenoxy)-3,6-dimethyl-1,2,3,4,5,6-hexahydroazepino[4,5-b]indole]
IC50 (5-HT2A [1]): 101 to 1000 nM
Increase in Neurite Branching (rat cortical neurons): A
Increase in Neurite Length (rat cortical neurons): A
Increase in Neurite Number (rat cortical neurons): A
EC50 (5-HT2A [2]): > 10000 nM
IC50 (5-HT2A [3]): 101 to 1000 nM

CCN(CC)C(=O)[C@@H]1C=C2c3cccc4[nH]c(Br)c(c34)C[C@H]2N(C)C1 [BOL148]
activation of the 5HT2A sensor assay in agonist mode (5HT2A sensor): do not activate

From patent US12295959B2 (priority 2021, dated 2025)
